# Laboratory results taken from ChEMBL document CHEMBL6177982, “Structural Optimization of Pyrazole Compounds as Hsp90 Regulators with Enhanced Antitumor Activity” (J Med Chem, 2025).
# Activity calls are given as the source filed them. The rule behind the calls is not given here.
# System: HCT-116
# Assay: Antiproliferative activity against CDC37 knockout human HCT-116 cells assessed as inhibition of cell proliferation incubated for 72 hrs by MTT assay
# Format: functional, cell-based
# Settings: not given
row,SMILES,Activity
1,O=C(/C=C/c1cn(-c2ccccc2)nc1-c1cccnc1)N1CCCCCC1,inactive

# Same assay, conditions: HCT-116, 72 h
row,IC50,SMILES
1,> 50 µM,N#Cc1cccc(-c2nn(-c3ccccc3)cc2/C=C/C(=O)N2CCCCC2C(N)=O)c1 (stereo not given)
2,> 100 µM,NC(=O)C1CCCCN1C(=O)/C=C/c1cn(-c2ccccc2)nc1-c1ccncc1 (stereo not given)
3,> 100 µM,NC(=O)C1CCCCN1C(=O)/C=C/c1cn(-c2ccccc2)nc1-c1cncc(Br)c1 (stereo not given)
4,> 50 µM,Cc1ccccc1S(=O)(=O)/C=C/c1cn(-c2ccccc2)nc1-c1cccnc1
5,> 50 µM,NC(=O)C1CCCCN1C(=O)/C=C/c1cn(-c2ccccc2)nc1-c1cccc(C(=O)O)c1 (stereo not given)
6,> 50 µM,NC(=O)C1CCCCN1C(=O)/C=C/c1cn(-c2ccccc2)nc1-c1cccs1 (stereo not given)
7,> 50 µM,CCOC(=O)c1cccc(-c2nn(-c3ccccc3)cc2/C=C/C(=O)N2CCCCC2C(N)=O)c1 (stereo not given)
8,44.7 µM,COc1cc(-c2nn(-c3ccccc3)cc2/C=C/C(=O)N2CCCCC2C(N)=O)ccc1Br (stereo not given)

# More lines, now with the values behind:
row,SMILES,IC50
1,NC(=O)C1CCCCN1C(=O)/C=C/c1cn(-c2ccccc2)nc1Cc1ccccc1 (stereo not given),42.2 µM
2,O=C(/C=C/c1cn(-c2ccccc2)nc1-c1cccnc1)N1CCCCC1,> 50 µM
3,O=S(=O)(/C=C/c1cn(-c2ccccc2)nc1-c1cccnc1)c1ccc(Cl)cc1,> 50 µM
4,Cc1ccc(S(=O)(=O)/C=C/c2cn(-c3ccccc3)nc2-c2cccnc2)cc1,> 50 µM
5,CCCN(CCC)C(=O)/C=C/c1cn(-c2ccccc2)nc1-c1cccnc1,46.3 µM
6,O=S(=O)(CCc1cn(-c2ccccc2)nc1-c1cccnc1)c1ccccc1,> 50 µM
7,COc1cccc(-c2nn(-c3ccccc3)cc2/C=C/C(=O)N2CCCCC2C(N)=O)c1 (stereo not given),> 50 µM
8,NC(=O)C1CCCCN1C(=O)/C=C/c1cn(-c2ccccc2)nc1-c1ccccc1 (stereo not given),28.8 µM
9,COc1cncc(-c2nn(-c3ccccc3)cc2/C=C/C(=O)N2CCCCC2C(N)=O)c1 (stereo not given),> 100 µM
10,Cc1cccc(-c2nn(-c3ccccc3)cc2/C=C/C(=O)N2CCCCC2C(N)=O)c1 (stereo not given),35 µM
11,O=C(/C=C/c1cn(-c2ccccc2)nc1-c1cccnc1)N1CCCC1,> 50 µM
12,NC(=O)C1CCCCN1C(=O)/C=C/c1cn(-c2ccccc2)nc1-c1cccnc1Br (stereo not given),> 50 µM

# System: HCT-116
# Assay: Antiproliferative activity against human HCT-116 cells assessed as inhibition of cell proliferation incubated for 72 hrs by MTT assay
# Format: functional, cell-based
# Settings: HCT-116, 72 h
row,IC50,SMILES
1,> 50 µM,N#Cc1cccc(-c2nn(-c3ccccc3)cc2/C=C/C(=O)N2CCCCC2C(N)=O)c1 (stereo not given)
2,8.11 µM,NC(=O)C1CCCCN1C(=O)/C=C/c1cn(-c2ccccc2)nc1-c1ccncc1 (stereo not given)
3,9.18 µM,NC(=O)C1CCCCN1C(=O)/C=C/c1cn(-c2ccccc2)nc1-c1cncc(Br)c1 (stereo not given)
4,2.55 µM,Cc1ccccc1S(=O)(=O)/C=C/c1cn(-c2ccccc2)nc1-c1cccnc1
5,> 50 µM,NC(=O)C1CCCCN1C(=O)/C=C/c1cn(-c2ccccc2)nc1-c1cccc(C(=O)O)c1 (stereo not given)
6,8.46 µM,NC(=O)C1CCCCN1C(=O)/C=C/c1cn(-c2ccccc2)nc1-c1cccs1 (stereo not given)
7,> 50 µM,CCOC(=O)c1cccc(-c2nn(-c3ccccc3)cc2/C=C/C(=O)N2CCCCC2C(N)=O)c1 (stereo not given)
8,10.1 µM,COc1cc(-c2nn(-c3ccccc3)cc2/C=C/C(=O)N2CCCCC2C(N)=O)ccc1Br (stereo not given)

# Second part, the compound before the results:
row,SMILES,IC50
1,NC(=O)C1CCCCN1C(=O)/C=C/c1cn(-c2ccccc2)nc1Cc1ccccc1 (stereo not given),18.2 µM
2,O=C(/C=C/c1cn(-c2ccccc2)nc1-c1cccnc1)N1CCCCC1,8.11 µM
3,O=S(=O)(/C=C/c1cn(-c2ccccc2)nc1-c1cccnc1)c1ccc(Cl)cc1,1.28 µM
4,Cc1ccc(S(=O)(=O)/C=C/c2cn(-c3ccccc3)nc2-c2cccnc2)cc1,4.77 µM
5,CCCN(CCC)C(=O)/C=C/c1cn(-c2ccccc2)nc1-c1cccnc1,9.04 µM
6,O=S(=O)(CCc1cn(-c2ccccc2)nc1-c1cccnc1)c1ccccc1,> 50 µM
7,COc1cccc(-c2nn(-c3ccccc3)cc2/C=C/C(=O)N2CCCCC2C(N)=O)c1 (stereo not given),10.3 µM
8,O=C(/C=C/c1cn(-c2ccccc2)nc1-c1cccnc1)N1CCCCCC1,7.17 µM
9,NC(=O)C1CCCCN1C(=O)/C=C/c1cn(-c2ccccc2)nc1-c1ccccc1 (stereo not given),10 µM
10,COc1cncc(-c2nn(-c3ccccc3)cc2/C=C/C(=O)N2CCCCC2C(N)=O)c1 (stereo not given),8.98 µM
11,Cc1cccc(-c2nn(-c3ccccc3)cc2/C=C/C(=O)N2CCCCC2C(N)=O)c1 (stereo not given),8.12 µM
12,O=C(/C=C/c1cn(-c2ccccc2)nc1-c1cccnc1)N1CCCC1,8.48 µM
13,NC(=O)C1CCCCN1C(=O)/C=C/c1cn(-c2ccccc2)nc1-c1cccnc1Br (stereo not given),11.8 µM

# System: not listed separately
# Assay: Selectivity ratio of IC50 for antiproliferative activity against CDC37 knockout human HCT-116 cells to IC50 for antiproliferative activity against human HCT-116 cells
# Format: functional
# Settings: not given
row,SMILES,Ratio IC50
1,NC(=O)C1CCCCN1C(=O)/C=C/c1cn(-c2ccccc2)nc1Cc1ccccc1 (stereo not given),2.3
2,O=C(/C=C/c1cn(-c2ccccc2)nc1-c1cccnc1)N1CCCCC1,>5
3,O=S(=O)(/C=C/c1cn(-c2ccccc2)nc1-c1cccnc1)c1ccc(Cl)cc1,>50
4,NC(=O)C1CCCCN1C(=O)/C=C/c1cn(-c2ccccc2)nc1-c1ccncc1 (stereo not given),>10
5,NC(=O)C1CCCCN1C(=O)/C=C/c1cn(-c2ccccc2)nc1-c1cncc(Br)c1 (stereo not given),>10
6,Cc1ccccc1S(=O)(=O)/C=C/c1cn(-c2ccccc2)nc1-c1cccnc1,>25
7,Cc1ccc(S(=O)(=O)/C=C/c2cn(-c3ccccc3)nc2-c2cccnc2)cc1,>10
8,CCCN(CCC)C(=O)/C=C/c1cn(-c2ccccc2)nc1-c1cccnc1,5.1
9,COc1cccc(-c2nn(-c3ccccc3)cc2/C=C/C(=O)N2CCCCC2C(N)=O)c1 (stereo not given),>5
10,O=C(/C=C/c1cn(-c2ccccc2)nc1-c1cccnc1)N1CCCCCC1,>20
11,NC(=O)C1CCCCN1C(=O)/C=C/c1cn(-c2ccccc2)nc1-c1ccccc1 (stereo not given),2.8
12,NC(=O)C1CCCCN1C(=O)/C=C/c1cn(-c2ccccc2)nc1-c1cccs1 (stereo not given),>5
13,COc1cncc(-c2nn(-c3ccccc3)cc2/C=C/C(=O)N2CCCCC2C(N)=O)c1 (stereo not given),>10
14,Cc1cccc(-c2nn(-c3ccccc3)cc2/C=C/C(=O)N2CCCCC2C(N)=O)c1 (stereo not given),4.3
15,COc1cc(-c2nn(-c3ccccc3)cc2/C=C/C(=O)N2CCCCC2C(N)=O)ccc1Br (stereo not given),4.4
16,O=C(/C=C/c1cn(-c2ccccc2)nc1-c1cccnc1)N1CCCC1,>5
17,NC(=O)C1CCCCN1C(=O)/C=C/c1cn(-c2ccccc2)nc1-c1cccnc1Br (stereo not given),<5

# Molecular target: Heat shock protein HSP 90-beta/Hsp90 co-chaperone Cdc37 (Homo sapiens) (UniProt P08238+Q16543)
# Assay: Inhibition of His-tagged HSP90(unknown origin)/GST-tagged CDC37 (unknown origin) protein-protein interaction at 100 uM preincubated with HSP90 for 1 hrs followed by CDC37 addition and measured after 1 hrs by HTRF assay relative to control
# Format: protein-complex assay
# Settings: not given
row,inhibition,SMILES
1,< 20%,N#Cc1cccc(-c2nn(-c3ccccc3)cc2/C=C/C(=O)N2CCCCC2C(N)=O)c1 (stereo not given)
2,70.4%,NC(=O)C1CCCCN1C(=O)/C=C/c1cn(-c2ccccc2)nc1-c1ccncc1 (stereo not given)
3,72.5%,NC(=O)C1CCCCN1C(=O)/C=C/c1cn(-c2ccccc2)nc1-c1cncc(Br)c1 (stereo not given)
4,87.6%,Cc1ccccc1S(=O)(=O)/C=C/c1cn(-c2ccccc2)nc1-c1cccnc1
5,< 20%,NC(=O)C1CCCCN1C(=O)/C=C/c1cn(-c2ccccc2)nc1-c1cccc(C(=O)O)c1 (stereo not given)
6,59%,NC(=O)C1CCCCN1C(=O)/C=C/c1cn(-c2ccccc2)nc1-c1cccs1 (stereo not given)
7,< 20%,CCOC(=O)c1cccc(-c2nn(-c3ccccc3)cc2/C=C/C(=O)N2CCCCC2C(N)=O)c1 (stereo not given)
8,49.2%,COc1cc(-c2nn(-c3ccccc3)cc2/C=C/C(=O)N2CCCCC2C(N)=O)ccc1Br (stereo not given)

# The next lines start with the compound.
row,SMILES,inhibition
1,NC(=O)C1CCCCN1C(=O)/C=C/c1cn(-c2ccccc2)nc1Cc1ccccc1 (stereo not given),38.9%
2,O=C(/C=C/c1cn(-c2ccccc2)nc1-c1cccnc1)N1CCCCC1,68.8%
3,O=S(=O)(/C=C/c1cn(-c2ccccc2)nc1-c1cccnc1)c1ccc(Cl)cc1,89.2%
4,Cc1ccc(S(=O)(=O)/C=C/c2cn(-c3ccccc3)nc2-c2cccnc2)cc1,85.8%
5,CCCN(CCC)C(=O)/C=C/c1cn(-c2ccccc2)nc1-c1cccnc1,63.6%
6,COc1cccc(-c2nn(-c3ccccc3)cc2/C=C/C(=O)N2CCCCC2C(N)=O)c1 (stereo not given),67.8%
7,O=C(/C=C/c1cn(-c2ccccc2)nc1-c1cccnc1)N1CCCCCC1,72.5%
8,NC(=O)C1CCCCN1C(=O)/C=C/c1cn(-c2ccccc2)nc1-c1ccccc1 (stereo not given),46.4%
9,COc1cncc(-c2nn(-c3ccccc3)cc2/C=C/C(=O)N2CCCCC2C(N)=O)c1 (stereo not given),70.9%
10,Cc1cccc(-c2nn(-c3ccccc3)cc2/C=C/C(=O)N2CCCCC2C(N)=O)c1 (stereo not given),52.9%
11,O=C(/C=C/c1cn(-c2ccccc2)nc1-c1cccnc1)N1CCCC1,65.9%
12,NC(=O)C1CCCCN1C(=O)/C=C/c1cn(-c2ccccc2)nc1-c1cccnc1Br (stereo not given),42.9%

# Molecular target: Heat shock protein HSP90 (Homo sapiens) (UniProt P07900+P08238)
# Assay: Induction of thermal stabilization of HSP90 in human HCT-116 cells at 10 uM at 53 to 55 degreeC by CETSA based Western blot analysis
# Format: cell-based
# Settings: not given
row,Activity,SMILES
1,inactive,O=S(=O)(CCc1cn(-c2ccccc2)nc1-c1cccnc1)c1ccccc1
